Patent US20250179033A1 (priority 2021, published 2025)
Read-outs that look alike come from different tables or passages of the source.

Columns and labels:
[1] = system: HIV-1 IIIB A17 variant (Y181C/K103N); experiment: HIV inhibition assay in TZM-bl cells, A17 variant; type: cell-based; conditions: Human immunodeficiency virus 1, IIIB, TZM-bl; for IC50: read-out: IC50 (TZM, A17), Table 4, TZM-bl
Description: (§1) Cells and virus culture: TZM-bl cells (42), HIV-1 IIIB virus (43-45) and HIV-1 IIIB (A17 variant) virus (46) as well are the NNRTI resistant mutants (strain NL4-3) (47) were obtained from the NIH HIV Reagent Program. H9 [derivative of HuT 78]cells (ATCC® HTB176™) were obtained from the American Type Culture Collection (Manassas, Virginia, United States of America). These viruses were grown in H9 cells to high titer, which was tested using a HIV p24 (high sensitivity) The detection kit used was sold under the tradename ALPHALISA® Detection Kit (PerkinElmer, Waltham, Massachusetts, United States of America). The viruses were concentrated using Lenti-X Concentrator (Takara Bio USA, Inc., Mountain View, California, United States of America). Infections of TZM-bl cells with either virus was facilitated with 15 μg/mL DEAE-dextran.
(§2) Compounds were serially diluted starting with 10 mM stocks in DMSO. DMSO concentrations were kept the same for all dilutions used within an assay (either 0.005% or 0.05% depending on highest concentration used). Duplicate 96-well plates were set up with 25 μL compound dilution, 25 μL virus, and 50 μL TZM-bl cells (2×10^5/mL) with DEAE-dextran and incubated at 37° C. 5% CO2 for 48 hr. All compounds were tested in triplicate, with single wells of efavirenz dilutions on each plate. All plates had 3-5 control wells without compound, 1 control well with no cells, and 1 control well with a highly toxic level of DMSO (9%). Inhibition assays were set up in clear tissue-culture treated plates with lysates moved to black assay plates or were set up in black tissue culture-treated plates. Medium was removed and the cells were lysed with Glo Lysis Buffer (Promega, Madison, Wisconsin, United States of America). Luciferase Assay System reagent (Promega, Madison, Wisconsin, United States of America) was added to cells and relative light units (RLU) was measured using an EnSpire instrument (PerkinElmer, Waltham, Massachusetts, United States of America). Toxicity assays were set up in clear tissue culture-treated plates. CellTiter-Blue Cell Viability Assay reagent (Promega) was added to the wells after 46 hr incubation, followed by 2 hr incubation. Sodium lauryl sulfate was added to 1.5% to stop the reaction and the plates were measured for fluorescence (560 nmEx/590 nmEm) using an EnSpire instrument (PerkinElmer, Waltham, Massachusetts, United States of America).

[2] = system: primary mouse neuron cultures; experiment: Calcium imaging in primary neurons; type: cell-based; conditions: 1 μM
Description: The direct effects of the antiretroviral compounds were tested on primary rat and mouse neurons cultured on coverslips. Neurons at 14-18 days in vitro were loaded with the calcium indicator, Fluo-4 AM (2 μM, Molecular Probes, Inc., Eugene, Oregon, United States of America) in aCSF (aCSF: NaCl […], KCl 5.0 mM, CaCl2 2.3 mM, MgCl2 1.3 mM, glucose 20 mM). After 30 minutes of dye loading, the coverslip was transferred to a specialized stage for imaging. Cells were maintained in aCSF and time-lapse digital images were automatically captured on an Olympus IX71 microscope using software sold under the tradename METAMORPH® (Molecular Devices, San Jose, California, United States of America). Images were captured with a 40 msec exposure every 6 seconds for 6 minutes to assess acute effects and every minute for 60 minutes to assess delayed effects. Three pre-stimulation measurements were taken to establish basal levels of fluorescence at the beginning of each experiment. After collection of the third image, neurons the antiretroviral compound or vehicle diluted from the stock vial into aCSF was added to the neurons at the indicated final concentration. Baseline fluorescence was subtracted to correct for cell-to-cell differences in dye loading and intrinsic fluorescence. Changes in fluorescence at each time point were averaged across all cells from at least triplicate runs to provide an indication of the “typical” response. In some cases, individual cell response patterns are shown where the average masked important cell-specific profiles. All compounds were tested at 1 μM.

[3] = Toxicity assay in TZM-bl cells; type: cell-based; conditions: human
Description: as §2

[4] = system: HIV-1 IIIB (wild-type); experiment: HIV inhibition assay in TZM-bl cells, wild-type; type: cell-based; conditions: Human immunodeficiency virus 1, IIIB; for IC50: Table 4, TZM-bl, read-out: IC50 (TZM, WT)
Description: as §1, §2

[5] = molecular target: T1, HIV I reverse transcriptase (Human immunodeficiency virus type 1 group M subtype B, UniProt P03366); experiment: Reverse transcriptase inhibition assay (Roche kit, ELISA); type: biochemical
T1 construct: purchased Roche
Description: NNRTI assay methods: Inhibition of HIV I reverse transcriptase was assessed via a kit from Roche (Indianapolis-Marion County, Indiana, United States of America) using the manufacture's protocol (500 μM final reverse transcriptase reaction amount). […] DMSO concentrations were kept the same for all dilutions used within an assay (0.05%). Final compound concentrations ranged from 5000 nM-0.05 nM with 2-fold serial dilutions. 96-well plates were set up with 20 μL compound dilution, 20 μL reverse transcriptase, and 20 μL template/nucleotides and incubated at 37° C. 5% CO2 for 1 hr in a reaction plate. 50 μL of each reaction was then transferred to a streptavidin conjugated 96-well plate and an ELISA assay was run based on manufacture's protocol. All compounds were tested in sextuplicate, with single wells of efavirenz dilutions on each plate.

SMILES	IC50 [1] [nM]	acute spike frequency / acute signaling [2]	delayed spike frequency [2]	total calcium accumulation [2]	toxic effects by calcium imaging, overall [2]	CC50 at 48 h ([3]; TZM-bl cells, Table 4, TZM-bl, read-out: CC50 (TZM)) [nM]	IC50 [4] [nM]	EC50 [5] [nM]	IC50 [5] [nM]	EC50 ([1]; read-out: activity against the A17 double mutant (Y181C/K103N), EC50) [nM]	CC50 at 48 h [3] [nM]	EC50 ([4]; text b494, FIG. 2F, read-out: antiviral activity against wildtype, EC50) [nM]
O=C1Nc2ccc(Cl)cc2[C@@](C#CC2CC2)(C(F)(F)F)O1 [Efavirenz, efavirenz]	17	trend towards a reduced acute signaling	increase	most dramatic increase	seemed to have some toxic effects	> 100000	0.658					
Cc1cc(/C=C/C#N)cc(C)c1Nc1ccnc(Nc2ccc(C#N)cc2)n1 [Rilpivirine, rilpivirine, reference compound]	0.817	decrease					0.351	376	1180	1.58	112000	0.35
